How the values were obtained:
Human DYRK1B = target: T1, Human DYRK1B (Homo sapiens, UniProt Q9Y463); experiment: DYRK1B Kinase TR-FRET (IMAP-Tb) Assay; assay type: biochemical; settings: for IC50: TR-FRET, ATP 70 μM, 37° C. for 60 minutes, averages of multiple runs, read-out: Enzyme IC50 DYRK1B; for inhibition at 10 µM: 10 μM test compound, reported where IC50 was not determined, read-out: Enzyme DYRK1B % inhibition at 10 μM test compound concentration
T1 construct: purchased Invitrogen PR8350B (former PV4649)
T1 sequence (Q9Y463 whole entry): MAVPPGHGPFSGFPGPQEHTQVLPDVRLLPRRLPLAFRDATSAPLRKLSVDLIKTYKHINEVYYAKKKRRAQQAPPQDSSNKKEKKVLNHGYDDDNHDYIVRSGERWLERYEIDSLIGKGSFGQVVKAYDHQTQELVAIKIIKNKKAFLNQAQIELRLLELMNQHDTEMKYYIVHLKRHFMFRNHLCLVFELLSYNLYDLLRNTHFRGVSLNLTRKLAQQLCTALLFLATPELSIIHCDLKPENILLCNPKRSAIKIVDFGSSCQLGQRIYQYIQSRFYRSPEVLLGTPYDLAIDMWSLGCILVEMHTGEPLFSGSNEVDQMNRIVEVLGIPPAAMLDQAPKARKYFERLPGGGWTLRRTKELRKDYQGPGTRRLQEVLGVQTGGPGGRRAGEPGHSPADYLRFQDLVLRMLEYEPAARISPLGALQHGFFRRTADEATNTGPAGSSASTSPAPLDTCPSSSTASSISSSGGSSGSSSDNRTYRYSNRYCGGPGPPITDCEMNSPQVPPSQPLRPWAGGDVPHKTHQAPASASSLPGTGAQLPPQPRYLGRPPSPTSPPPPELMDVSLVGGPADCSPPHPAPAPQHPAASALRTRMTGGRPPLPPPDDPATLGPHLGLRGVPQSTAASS
Source text: The kinase TR-FRET (IMAP-Tb) assay uses a fluorescence labeled substrate peptide in the kinase reaction. Upon phosphorylation by the kinase, phosphopeptide is produced, which will be detected by the binding solution provided in IMAP TR-FRET binding kit. After the completion of the kinase reaction, the reaction will be stopped by adding the binding solution containing terbium tracer. This tracer is immobilized on the surface of the IMAP beads, which also contain metal ions on the beads that bind to the phospho-groups of the products. Thus the phosphorylated product of the reaction can enter into close proximity to the tracer, producing resonance energy transfer. Due to the long lifetime of terbium (Tb) fluorescence the detection can be run in time resolved mode, which virtually eliminates fluorescence interference from assay components or compounds. […] IC50 is the amount of test compound that inhibits 50% of the activity of DYRK1B in this assay. […] 1. Human DYRK1B: from Invitrogen. Part # PR8350B (former PV4649) 2. Substrate Peptide: RRRFRPASPLRGPPK 3. IMAP TR-FRET IPP Explorer Kit: from Molecular Devices. Part # R8157 4. Kinase Assay Buffer (KAB): 10 mM HEPES pH 7.0, 50 mM NaCl, 5 mM MgCl2, 1 mM DTT, 1 mM NaVO4, 200 μg/mL BSA (0.02%) 5. Assay Plate: Remp polypropylene clear 384-well microplate. Cat#23490-102 6. Detection Plate: Costa black 384-well microplate. Cat #3710 Assay Procedure: This assay was performed as follows: 1. Transfer 1.5 μL of 20× compound solution to each well of an assay plate. 2. Add to each well 22.5 μL of KAB Buffer. 3. Add to each well 3 μL of the solution of DYRK1B and ATP. […] Add to each well 3 μL of the substrate peptide. […] Incubate the assay plates at 37° C. for 60 minutes. 6. Add 18 μL of Detection Solution (1:800 diluted Progress bead stock, 1:400 diluted Tb stock, 80% Buffer A, and 20% Buffer B) into each well of detection plates. 7. Transfer 6 μL of assay solution from the assay plate to the detection plate. 8. Shake detection plates for 30 minutes. 9. Read plates in Envision with wavelength set at excitation 340 nm for Tb, emission 490 nm, and […]. 10. Calculation: TR-FRET Signal=(Reading at […])×2000000

Human DYRK1A = target: T2, Human DYRK1A (Homo sapiens, UniProt Q13627); experiment: DYRK1A Kinase TR-FRET (IMAP-Tb) Assay; assay type: biochemical; settings: for IC50: TR-FRET, ATP 70 μM, 37° C. for 60 minutes, averages of multiple runs, read-out: Enzyme IC50 DYRK1A; for inhibition at 10 µM: 10 μM test compound, reported where IC50 was not determined, read-out: Enzyme DYRK1A % inhibition at 10 μM test compound concentration
T2 construct: purchased Invitrogen PV3997
Source text: The kinase TR-FRET (IMAP-Tb) assay uses a fluorescence labeled substrate peptide in the kinase reaction. Upon phosphorylation by the kinase, phosphopeptide is produced, which will be detected by the binding solution provided in IMAP TR-FRET binding kit. After the completion of the kinase reaction, the reaction will be stopped by adding the binding solution containing terbium tracer. This tracer is immobilized on the surface of the IMAP beads, which also contain metal ions on the beads that bind to the phospho-groups of the products. Thus the phosphorylated product of the reaction can enter into close proximity to the tracer, producing resonance energy transfer. Due to the long lifetime of terbium (Tb) fluorescence the detection can be run in time resolved mode, which virtually eliminates fluorescence interference from assay components or compounds.
The TR-FRET signal measurement from this assay, given as an IC50 measurement, is a measure of a test compound's ability to interfere with the phosphorylation of the peptide substrate, that is it inhibits the phosphorylation of the substrate peptide by DYRK1A, and is thus a measure of the test compound's ability to inhibit the activity of DYRK1A.
1. Human DYRK1A: from Invitrogen. Part # PV3997
2. Substrate Peptide: […]
3. IMAP TR-FRET IPP Explorer Kit: from Molecular Devices. Part # R8157 4. Kinase Assay Buffer (KAB): 10 mM HEPES pH 7.0, 50 mM NaCl, 5 mM MgCl2, 1 mM DTT, 1 mM NaVO4, 200 μg/mL BSA (0.02%) 5. Assay Plate: Remp polypropylene clear 384-well microplate. […] Detection Plate: Costa black 384-well microplate. […] Transfer 1.5 μL of 20× compound solution to each well of an assay plate. 2. Add to each well 22.5 μL of KAB Buffer. 3. Add to each well 3 μL of the solution of DYRK1A and ATP. […] Add to each well 3 μL of the substrate peptide. The assay concentration is 1.0 μM 5. Incubate the assay plates at 37° C. for 60 minutes. 6. Add 18 μL of Detection Solution (1:800 diluted Progress bead stock, 1:400 diluted Tb stock, 80% Buffer A, and 20% Buffer B) into each well of detection plates. 7. Transfer 6 μL of assay solution from the assay plate to the detection plate. 8. Shake detection plates for 30 minutes. 9. Read plates in Envision with wavelength set at excitation 340 nm for Tb, emission 490 nm, and […].

COCCOc1cc2cc(C(=O)Nc3cc(C(=O)N[C@@H](CCN)c4ccccc4)ccc3C)c(=O)[nH]c2cc1OC (single isomer, unassigned) [Example 59]
IC50 (Human DYRK1B): 4.91 µM | IC50 (Human DYRK1A): 2.38 µM

COc1cc2cc(C(=O)Nc3cc(C(=O)NC(CCN)c4ccccc4)ccc3C)c(=O)[nH]c2cc1OC (stereo in doubt) [Example 48, 6,7-Dimethoxy-2-oxo-1,2-dihydro-quinoline-3-carboxylic acid [5-((S)-3-amino-1-phenyl-propylcarbamoyl)-2-methyl-phenyl]-amide]
inhibition at 10 µM (Human DYRK1B): 39% | IC50 (Human DYRK1A): 1.02 µM

COc1cc2cc(C(=O)Nc3cc(C(=O)N(C)C)ccc3Cl)c(=O)[nH]c2cc1OC [Example 20, 6,7-Dimethoxy-2-oxo-1,2-dihydro-quinoline-3-carboxylic acid (2-chloro-5-dimethylcarbamoyl-phenyl)-amide]
IC50 (Human DYRK1B): 5.09 µM | IC50 (Human DYRK1A): 1.13 µM

COc1cc2cc(C(=O)Nc3ccncc3C)c(=O)[nH]c2cc1OC [Example 21, 6,7-Dimethoxy-2-oxo-1,2-dihydro-quinoline-3-carboxylic acid (3-methyl-pyridin-4-yl)-amide]
IC50 (Human DYRK1B): 5.48 µM | IC50 (Human DYRK1A): > 10 µM

COc1cc2cc(C(=O)Nc3cc(-c4nnn[nH]4)ccc3C)c(=O)[nH]c2cc1OC [Example 22, 6,7-Dimethoxy-2-oxo-1,2-dihydro-quinoline-3-carboxylic acid [2-methyl-5-(1H-tetrazol-5-yl)-phenyl]-amide]
IC50 (Human DYRK1B): 0.719 µM | IC50 (Human DYRK1A): > 10 µM

COCCOc1cc2cc(C(=O)Nc3cc(-c4nnn[nH]4)ccc3C)c(=O)[nH]c2cc1OC [Example 24, 7-Methoxy-6-(2-methoxy-ethoxy)-2-oxo-1,2-dihydro-quinoline-3-carboxylic acid [2-methyl-5-(1H-tetrazol-5-yl)-phenyl]-amide]
IC50 (Human DYRK1B): 2.67 µM | IC50 (Human DYRK1A): 1.76 µM

COCCOc1cc2cc(C(=O)Nc3cc(C(=O)OC)ccc3C)c(=O)[nH]c2cc1OCCOC [Example 25, 3-{[6,7-Bis-(2-methoxy-ethoxy)-2-oxo-1,2-dihydro-quinoline-3-carbonyl]-amino}-4-methyl-benzoic acid methyl ester]
IC50 (Human DYRK1B): 0.911 µM | IC50 (Human DYRK1A): 0.604 µM

COCCOc1cc2[nH]c(=O)c(C(=O)Nc3cc(C(=O)OC)ccc3C)cc2cc1OC [Example 26, 3-{[6-Methoxy-7-(2-methoxy-ethoxy)-2-oxo-1,2-dihydro-quinoline-3-carbonyl]-amino}-4-methyl-benzoic acid methyl ester]
IC50 (Human DYRK1B): 6.42 µM | IC50 (Human DYRK1A): 5.14 µM

COCCOc1cc2[nH]c(=O)c(C(=O)Nc3cc(-c4nnn[nH]4)ccc3C)cc2cc1OC [Example 27, 6-Methoxy-7-(2-methoxy-ethoxy)-2-oxo-1,2-dihydro-quinoline-3-carboxylic acid [2-methyl-5-(1H-tetrazol-5-yl)-phenyl]-amide]
IC50 (Human DYRK1B): 6.59 µM | inhibition at 10 µM (Human DYRK1A): 41%

COCCOc1cc2cc(C(=O)Nc3cc(-c4nnn[nH]4)ccc3C)c(=O)[nH]c2cc1OCCOC [Example 28, 6,7-Bis-(2-methoxy-ethoxy)-2-oxo-1,2-dihydro-quinoline-3-carboxylic acid [2-methyl-5-(1H-tetrazol-5-yl)-phenyl]-amide]
IC50 (Human DYRK1B): 5.05 µM | inhibition at 10 µM (Human DYRK1A): 49%

COc1cc2cc(C(=O)Nc3cc(C(=O)NCCCN4CCOCC4)ccc3C)c(=O)[nH]c2cc1OC [Example 32, 6,7-Dimethoxy-2-oxo-1,2-dihydro-quinoline-3-carboxylic acid [2-methyl-5-(3-morpholin-4-yl-propylcarbamoyl)-phenyl]-amide]
IC50 (Human DYRK1B): > 10 µM | IC50 (Human DYRK1A): 3.62 µM

COc1cc2cc(C(=O)Nc3cc(C(=O)NC(CO)C(C)C)ccc3C)c(=O)[nH]c2cc1OC (centres unmarked) [Example 33, 6,7-Dimethoxy-2-oxo-1,2-dihydro-quinoline-3-carboxylic acid [5-(1-hydroxymethyl-2-methyl-propylcarbamoyl)-2-methyl-phenyl]-amide]
inhibition at 10 µM (Human DYRK1B): 36% | inhibition at 10 µM (Human DYRK1A): 36%

COc1cc2cc(C(=O)Nc3ccncc3Cl)c(=O)[nH]c2cc1OC [Example 36, 6,7-Dimethoxy-2-oxo-1,2-dihydro-quinoline-3-carboxylic acid (3-chloro-pyridin-4-yl)-amide]
inhibition at 10 µM (Human DYRK1B): 28% | IC50 (Human DYRK1A): 0.239 µM

COc1cc2cc(C(=O)Nc3cc(C(=O)NCc4cccc(Cl)c4)ccc3C)c(=O)[nH]c2cc1OC [Example 40, 6,7-Dimethoxy-2-oxo-1,2-dihydro-quinoline-3-carboxylic acid [5-(3-chloro-benzylcarbamoyl)-2-methyl-phenyl]-amide]
inhibition at 10 µM (Human DYRK1B): 34% | IC50 (Human DYRK1A): 0.182 µM

COc1cc2cc(C(=O)Nc3cc(C(=O)NCC4CCCCC4)ccc3C)c(=O)[nH]c2cc1OC [Example 41, 6,7-Dimethoxy-2-oxo-1,2-dihydro-quinoline-3-carboxylic acid [5-(cyclohexylmethyl-carbamoyl)-2-methyl-phenyl]-amide]
IC50 (Human DYRK1B): 2.59 µM | IC50 (Human DYRK1A): 4.59 µM

COc1cc2cc(C(=O)Nc3cc(-c4ncco4)ccc3C)c(=O)[nH]c2cc1OC [Example 51, 6,7-Dimethoxy-2-oxo-1,2-dihydro-quinoline-3-carboxylic acid (2-methyl-5-oxazol-2-yl-phenyl)-amide]
inhibition at 10 µM (Human DYRK1B): 42% | IC50 (Human DYRK1A): 0.592 µM

COc1cc2cc(C(=O)Nc3cc(C(=O)N[C@@H](CO)c4ccccc4)ccc3C)c(=O)[nH]c2cc1OC [Example 56, (R)-N-(5-(2-Hydroxy-1-phenylethylcarbamoyl)-2-methylphenyl)-6,7-dimethoxy-2-oxo-1,2-dihydroquinoline-3-carboxamide]
IC50 (Human DYRK1B): > 10 µM | inhibition at 10 µM (Human DYRK1A): 31%

COc1cc2cc(C(=O)Nc3cc(C(=O)N[C@H](CO)CC(C)C)ccc3C)c(=O)[nH]c2cc1OC [Example 65, (S)-N-(5-(1-Hydroxy-4-methylpentan-2-ylcarbamoyl)-2-methylphenyl)-6,7-dimethoxy-2-oxo-1,2-dihydroquinoline-3-carboxamide]
inhibition at 10 µM (Human DYRK1B): 26% | IC50 (Human DYRK1A): 4.31 µM

COc1cc2cc(C(=O)Nc3cc(C(=O)N[C@@H](CO)CC(C)C)ccc3C)c(=O)[nH]c2cc1OC [Example 66, (R)-N-(5-(1-Hydroxy-4-methylpentan-2-ylcarbamoyl)-2-methylphenyl)-6,7-dimethoxy-2-oxo-1,2-dihydroquinoline-3-carboxamide]
inhibition at 10 µM (Human DYRK1B): 13% | IC50 (Human DYRK1A): > 10 µM
